The conditions of data set [1]: in vivo; cited from earlier work.
Data set [2] in a line: Storage stability of analytes in mouse plasma (method validation). The settings on record: for Freeze and thaw stability at -80 °C/ room temperature, Bias / Freeze and thaw stability at -80 °C/ room temperature, Measured concentration / Long term stability at -80 °C (30 days), Bias / Short term stability at room temperature (6 h), Bias / Long term stability at -80 °C (30 days), Measured concentration / Short term stability at room temperature (6 h), Measured concentration: mouse plasma; for Freeze and thaw stability at -80 °C/ room temperature, Bias / Freeze and thaw stability at -80 °C/ room temperature, Measured concentration: 1 cycle; for Freeze and thaw stability at -80 °C/ room temperature, Bias / Long term stability at -80 °C (30 days), Bias / Short term stability at room temperature (6 h), Bias / Auto-sampler stability at 2-8 °C, Bias: n = 6; for Freeze and thaw stability at -80 °C/ room temperature, Measured concentration / Long term stability at -80 °C (30 days), Measured concentration / Short term stability at room temperature (6 h), Measured concentration / Auto-sampler stability at 2-8 °C, Measured concentration: n = 6, mean ± SD; for Auto-sampler stability at 2-8 °C, Bias / Auto-sampler stability at 2-8 °C, Measured concentration: processed mouse plasma, 12 h.
Description: By investigating low- and high-concentration stability QCs in six replicates at different storage conditions, autosampler, short-term (bench-top), freeze and thaw, and long-term stability evaluations were conducted.

In data set [3] the target is T1, legumain (Homo sapiens, UniProt Q99538).
T1 sequence (Q99538 18-433): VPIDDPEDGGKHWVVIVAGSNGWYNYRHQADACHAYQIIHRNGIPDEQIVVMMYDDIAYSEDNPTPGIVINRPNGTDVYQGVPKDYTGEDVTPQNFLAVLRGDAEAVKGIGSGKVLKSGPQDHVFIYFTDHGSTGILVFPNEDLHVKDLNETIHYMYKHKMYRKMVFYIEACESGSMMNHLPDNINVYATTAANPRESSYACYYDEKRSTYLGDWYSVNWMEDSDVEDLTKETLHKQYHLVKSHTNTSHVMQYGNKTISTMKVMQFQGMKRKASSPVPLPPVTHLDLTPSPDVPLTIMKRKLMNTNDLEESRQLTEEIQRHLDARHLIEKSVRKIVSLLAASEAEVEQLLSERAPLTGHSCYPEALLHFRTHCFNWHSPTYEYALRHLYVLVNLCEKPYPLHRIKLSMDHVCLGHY
The data set is described as follows: Stability of Leu-DOX in the legumain enzymatic system. The data set is classed as in vitro ADME. The settings on record: plasma samples spiked with Leu-DOX, enzymatic digestion procedure (24 h, 37 °C), n = 3. On the procedure: The specific liquid-phase conditions are shown as follows. Column: Agilent Eclipse Plus 4.6 × 250 mm, 5 µm; mobile phase A: 0.1% trifluoroacetic acid in water; mobile phase B: acetonitrile. Flow rate: 1.0 mL/min; HPLC: Waters 2695; detector: Waters 2475 detector (ex470/em600); column temperature: 30 °C; injection volume: 10 µL; run time: 30 min; needle wash solvent: 50% acetonitrile in water; gradient elution: starting 20% B, increasing from 20% to 45% B in 15 min, increasing from 45% to 80% B in 15 to 20 min, maintained for 5 min, then decreasing to 20% B in 0.1 min, and continuing until the end of 30 min. (b) Kinetics of Leu-Dox release from legubicin (black) and legubicin–albumin conjugate (blue) in the presence of legumain (n = 4). (c) Stability of Leu-Dox in this enzymatic system (n = 3).
The assessment of Leu-DOX stability in the aforementioned enzymatic systems warrants careful consideration. Consequently, plasma samples containing Leu-DOX were intentionally supplemented to assess the potential impacts of these methods on the precise determination of the enzymatic digestion of the legubicin plasma protein complex, which is utilized for determining the total Leu-DOX post-digestion. […]

Where [4] appears, read: high QC (Leu-DOX 2400, DOX 800 pmol/mL).
[5] abbreviates: high QC (nominal Leu-DOX 2400, DOX 800 pmol/mL).
Where [6] appears, read: low QC (Leu-DOX 9, DOX 3 pmol/mL).
[7] abbreviates: low QC (nominal Leu-DOX 9, DOX 3 pmol/mL).
The mark [8] stands for this setting: high QC (Leu-DOX 2400, DOX 800 pmol/mL, conjugate 80 nmol/mL).
The mark [9] stands for this setting: low QC (Leu-DOX 9, DOX 3 pmol/mL, conjugate 0.2 nmol/mL).

The structures appear in SMILES notation.

We go through two compounds from paper PMC10892419, “UHPLC-MS/MS Assay for Quantification of Legubicin, a Novel Doxorubicin-Based Legumain-Activated Prodrug, and Its Application to Pharmacokinetic and Tissue Distribution Studies” (Molecules, 2024).

One may read the Vz as a proportionality between amount in the body and measured concentration, not a real space.

Take `COc1cccc2c1C(=O)c1c(O)c3c(c(O)c1C2=O)C[C@@](O)(C(=O)CO)C[C@@H]3O[C@H]1C[C@H](N)[C@H](O)[C@H](C)O1` [DOX, Doxorubicin]: in data set [1], the distribution volume (Vz) is 72 L/kg and the “clearance (CL)” value is given as “approximately 2553 mL/h/kg”. Moreover, in data set [2] (setting [4]), the “Freeze and thaw stability at -80 °C/ room temperature, Bias” value (“Freeze and thaw stability … Bias” below) is -7.0%; the “Auto-sampler stability at 2-8 °C, Bias” value is given as -8.2%. Moreover, in data set [2] (setting [5]), the “Freeze and thaw stability at -80 °C/ room temperature, Measured concentration” value was 744.33 ± 11.66 pmol/mL; the “Long term stability at -80 °C (30 days), Measured concentration” value (“Long term stability … Measured concentration” below) came to 838.33 ± 13.81 pmol/mL; the “Short term stability at room temperature (6 h), Measured concentration” value (from here on “Short term stability … Measured concentration”) stood at 728.83 ± 15.41 pmol/mL; the “Auto-sampler stability at 2-8 °C, Measured concentration” value is 734.00 ± 10.90 pmol/mL. Also, in data set [2] (setting [6]), the “Freeze and thaw stability … Bias” value is listed as -8.6%; the “Auto-sampler stability at 2-8 °C, Bias” value is -7.9%. Also, in data set [2] (setting [7]), the “Freeze and thaw stability at -80 °C/ room temperature, Measured concentration” value is on record as 2.74 ± 0.07 pmol/mL; the “Long term stability … Measured concentration” value stood at 2.97 ± 0.23 pmol/mL; the “Short term stability … Measured concentration” value was found to be 2.72 ± 0.17 pmol/mL; the “Auto-sampler stability at 2-8 °C, Measured concentration” value was 2.76 ± 0.16 pmol/mL. Besides, in data set [2] (setting [8]), the “Long term stability at -80 °C (30 days), Bias” value (from here on “Long term stability … Bias”) turned out to be 4.8% and the “Short term stability at room temperature (6 h), Bias” value (“Short term stability … Bias” for short) was -9.3%. In data set [2] (setting [9]), the “Long term stability … Bias” value was -1.1% and the “Short term stability … Bias” value was -9.4%.
For `COc1cccc2c1C(=O)c1c(O)c3c(c(O)c1C2=O)C[C@@](O)(C(=O)CO)C[C@@H]3O[C@H]1C[C@H](NC(=O)[C@@H](N)CC(C)C)[C@H](O)[C@H](C)O1` [Leu-DOX, N-L-leucyl-doxorubicin], in data set [2] (setting [4]), the “Freeze and thaw stability … Bias” value is listed as -1.8%; the “Auto-sampler stability at 2-8 °C, Bias” value is given as -2.4%. Further, in data set [2] (setting [5]), the “Freeze and thaw stability at -80 °C/ room temperature, Measured concentration” value worked out at 2356.67 ± 81.65 pmol/mL; the “Long term stability … Measured concentration” value was 2636.67 ± 103.47 pmol/mL; the “Short term stability … Measured concentration” value was found to be 2275.00 ± 81.67 pmol/mL; the “Auto-sampler stability at 2-8 °C, Measured concentration” value turned out to be 2341.67 ± 132.43 pmol/mL. In data set [2] (setting [6]), the “Freeze and thaw stability … Bias” value is recorded as -1.4%; the “Auto-sampler stability at 2-8 °C, Bias” value is recorded as -3.1%. Besides, in data set [2] (setting [7]), the “Freeze and thaw stability at -80 °C/ room temperature, Measured concentration” value was 8.87 ± 0.24 pmol/mL; the “Long term stability … Measured concentration” value turned out to be 9.08 ± 0.43 pmol/mL; the “Short term stability … Measured concentration” value turned out to be 8.71 ± 0.32 pmol/mL; the “Auto-sampler stability at 2-8 °C, Measured concentration” value was 8.72 ± 0.62 pmol/mL. In data set [2] (setting [8]), the “Long term stability … Bias” value is recorded as 9.9% and the “Short term stability … Bias” value is listed as -5.3%. Moreover, in data set [2] (setting [9]), the “Long term stability … Bias” value came to 0.9% and the “Short term stability … Bias” value is recorded as -3.2%. Also, the “stability in the legumain enzymatic digestion system” value in data set [3] was “remained unaltered throughout the enzymatic digestion procedure”.
